Measured values reported in paper PMC11513923, “Discovery of ZLC491 as a Potent, Selective, and Orally Bioavailable CDK12/13 PROTAC Degrader” (Journal of Medicinal Chemistry, 2024).
Where a SMILES comes first, the peptide text is derived from it. The star is where a group is joined. Cbz = O=C(OCc1ccccc1)*

Key:
CDK12 = CDK12 (Homo sapiens, UniProt Q9NYV4); assay: CDK12 degradation in MDA-MB-231 cells by immunoblotting; format: cell-based; set-up: Immunoblotting of CDK12 and CDK13 in MDA-MB-231 cells treated with increasing concentrations of ZLC491 for 15 h; endogenous in cells; host or cells: MDA-MB-231; details: 0.3 μM; for Protein Degradation (%DMSO control, 0.3 μM) CDK12: MDA-MB-231 cells, 15 h, immunoblotting, normalized against α-tubulin; for Degradation rates of CDK12 at 0.3 μM: supplementary CSV
Procedure: (§1) The degradation efficiency of the new molecules was assessed by immunoblotting after treatment with the compounds at 0.3 μM in MD-MBA-231 cells for 15 h.
(§2) To further characterize the compound, we determined the half-degradation concentration (DC50) values of ZLC491 in MDA-MB-231 cells. […] We also treated MDA-MB-231 cells with 1 μM ZLC491 at various time points.
(§3) (A) Immunoblotting of CDK12 and CDK13 in MDA-MB-231 cells treated with increasing concentrations of ZLC491 for 15 h (left). Percent remaining CDK12 and CDK13 proteins were plotted for DC50 determination (right). Protein levels were quantified using ImageJ and normalized to corresponding α-tubulin, then plotted using Graphpad Prism 8.0. The data were representative of three independent experiments; (B) immunoblotting of CDK12 and CDK13 proteins in MDA-MB-231 cells treated with ZLC491 for various time points; immunoblotting of CDK12 and CDK13 in HCC38 (C) and MDA-MB-436 (D) cells treated with increasing concentrations of ZLC491 for 15 h. α-Tubulin was used as a loading control. TEXT PRINTED IN THE PICTURE: (A) ZLC491: MDA-MB-231: CDK12 DC50 = 0.032μM; MDA-MB-231: CDK13 DC50 = 0.028μM DOUBTS OF THE COPYIST ABOUT THIS PICTURE: ZLC491, CDK12 DC50: 0.032 read from small print, the digits 3 and 2 are uncertain / ZLC491, CDK13 DC50: 0.028 read from small print, the last digit may be 8, 6 or 3
(§4) Generally, the tested cells were washed by ice-cold PBS buffer (Gibco) and lysed with an SDS lysis buffer (62.5 mM Tris, 2% w/v SDS, 10 glycerol, 50 mM DTT, 0.01% w/v bromophenol blue) on ice, after which the protein lysate samples were collected to 1.5 mL microcentrifuge tubes and treated with ultrasonic for 10 s, following with a 100 °C incubation for 10 min and a 4 °C centrifugation of 12000 rpm for 10 min. An equal amount of protein was loaded to 4–8% Bis-Tris gels and underwent an SDS-PAGE electrophoresis at 55V for 30 min and 95V for 90 min. Proteins on gels were then transferred to a polyvinylidene difluoride (PVDF) membrane (Bio-Rad) with a wet electro transfer system (Bio-Rad). The PVDF membrane was cut into bands and incubated in a blocking reagent (5% defatted milk powder dissolved in TBST) at room temperature for 1–2 h. Incubate membrane and primary antibody (at the appropriate dilution and diluent as recommended in the product webpage) at 4 °C for 12–14 h, followed with three times washes by TBST. The washed membranes were incubated in a secondary antibody solution (HRP-linked antirabbit IgG or antimouse IgG (CST), 1:2000 diluted into TBST) at room temperature for 2 h. Membranes were photographed in Amersham Imager 800 system using StarSignal plus regent (GenStar) or Omni-ECL reagent (EpiZyme). Compounds MG132, MLN4924, Bafilomycin A1 and pomalidomide were purchased from MedChemExpress (MCE) LLC.

CDK13 = target: T1, CDK13 (Homo sapiens, UniProt Q14004); assay: CDK13 degradation in MDA-MB-231 cells by immunoblotting; format: cell-based; details: 0.3 μM; for Protein Degradation (%DMSO control, 0.3 μM) CDK13: MDA-MB-231 cells, 15 h, immunoblotting, normalized against α-tubulin; for Degradation rates of CDK13 at 0.3 μM: supplementary CSV;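 as to Protein Degradation (%DMSO control, 0.3 μM) CDK13: percent of CDK13 protein degraded relative to DMSO control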
T1 construct: Immunoblotting of CDK12 and CDK13 in MDA-MB-231 cells treated with increasing concentrations of ZLC491 for 15 h; endogenous in cells; host or cells: MDA-MB-231
Procedure: as §1, §2, §3, §4

Pharmacokinetics in rats = format: in vivo, rat
Procedure: We further evaluated the in vivo PK properties of compound ZLC491 and the counterpart 4m (without F substitution) in rats, and the results were summarized in Table 2. […] The PK profiles of F-containing compound ZLC491 were further improved.
The pharmacokinetic investigation was taken by Shanghai Medicilon Inc. (Project Code: 26048-23001-NG). Sprague–Dawley male rats (Specific pathogen Free (SPF), provided by Zhejiang Vital River Laboratory Animal Technology Co. Ltd.) were dosed with ZLC491 solution formulation (5% DMSO, 10% Solutol, 85% normal saline, 2.5 mg/kg for intravenous dose, 10 mg/kg for oral dose) or compound 4m solution formulation (5% DMSO, 10% Solutol, 85% (20%HP-β-CD), 2.5 mg/kg for intravenous dose, 10 mg/kg for oral dose). Blood samples were collected at 0.083, 0.25, 0.5, 1, 2, 4, 8, and 24 h in intravenous administration, 0.25, 0.5, 1, 2, 4, 6, 8, and 24 h in oral administration. The blood samples were collected from sets of three rats at each time point in labeled microcentrifuge tubes containing heparin sodium as an anticoagulant. Plasma samples were separated by centrifugation (2–8 °C, 6800g for 6 min) within 1 h and stored below −80 °C until bioanalysis. All samples were processed for analysis by precipitation using acetonitrile and analyzed with a partially validated LC/MS/MS method. Pharmacokinetic parameters were calculated using the noncompartmental analysis tool of WinNonlin Enterprise software.

CDK12/13 = assay: Mechanism study: pretreatment before ZLC491, immunoblotting of CDK12/13 in MDA-MB-231 cells; format: cell-based, human; details: 2 h pretreatment (1 μM MG132, 0.1 μM MLN4924, 0.1 μM bafilomycin, 5 μM pomalidomide, 8 μM compound 5), then 1 μM ZLC491 10 h
Procedure: We further investigated the mechanism of action of ZLC491-mediated CDK12/13 degradation. […] Additionally, pretreatment with CRBN ligand pomalidomide or the warhead compound 5 also reversed the ZLC491-mediated CDK12/13 degradation in MDA-MB-231 cells (Figure 4D,E).
Figure 4 ZLC491 induced CDK12/13 degradation in a CRBN- and proteasome-dependent fashion. Immunoblotting of CDK12 and CDK13 in MDA-MB-231 cells treated with 1 μM ZLC491 for 10 h with or without pretreatment with 1 μM MG132 (A), 0.1 μM MLN4924 (B), 0.1 μM bafilomycin (C), 5 μM pomalidomide (D) and 8 μM compound 5 (E) for 2 h; (F) immunoblotting of CDK12 and CDK13 in MDA-MB-231 cells treated with 1 μM ZLC491N for 10 h. α-Tubulin was used as a loading control.
as §4

[1] = male, Sprague-Dawley, rat, plasma, oral bioavailability, p.o. 10 mg/kg vs i.v. 2.5 mg/kg

CDK12, sequence (Q9NYV4 whole entry): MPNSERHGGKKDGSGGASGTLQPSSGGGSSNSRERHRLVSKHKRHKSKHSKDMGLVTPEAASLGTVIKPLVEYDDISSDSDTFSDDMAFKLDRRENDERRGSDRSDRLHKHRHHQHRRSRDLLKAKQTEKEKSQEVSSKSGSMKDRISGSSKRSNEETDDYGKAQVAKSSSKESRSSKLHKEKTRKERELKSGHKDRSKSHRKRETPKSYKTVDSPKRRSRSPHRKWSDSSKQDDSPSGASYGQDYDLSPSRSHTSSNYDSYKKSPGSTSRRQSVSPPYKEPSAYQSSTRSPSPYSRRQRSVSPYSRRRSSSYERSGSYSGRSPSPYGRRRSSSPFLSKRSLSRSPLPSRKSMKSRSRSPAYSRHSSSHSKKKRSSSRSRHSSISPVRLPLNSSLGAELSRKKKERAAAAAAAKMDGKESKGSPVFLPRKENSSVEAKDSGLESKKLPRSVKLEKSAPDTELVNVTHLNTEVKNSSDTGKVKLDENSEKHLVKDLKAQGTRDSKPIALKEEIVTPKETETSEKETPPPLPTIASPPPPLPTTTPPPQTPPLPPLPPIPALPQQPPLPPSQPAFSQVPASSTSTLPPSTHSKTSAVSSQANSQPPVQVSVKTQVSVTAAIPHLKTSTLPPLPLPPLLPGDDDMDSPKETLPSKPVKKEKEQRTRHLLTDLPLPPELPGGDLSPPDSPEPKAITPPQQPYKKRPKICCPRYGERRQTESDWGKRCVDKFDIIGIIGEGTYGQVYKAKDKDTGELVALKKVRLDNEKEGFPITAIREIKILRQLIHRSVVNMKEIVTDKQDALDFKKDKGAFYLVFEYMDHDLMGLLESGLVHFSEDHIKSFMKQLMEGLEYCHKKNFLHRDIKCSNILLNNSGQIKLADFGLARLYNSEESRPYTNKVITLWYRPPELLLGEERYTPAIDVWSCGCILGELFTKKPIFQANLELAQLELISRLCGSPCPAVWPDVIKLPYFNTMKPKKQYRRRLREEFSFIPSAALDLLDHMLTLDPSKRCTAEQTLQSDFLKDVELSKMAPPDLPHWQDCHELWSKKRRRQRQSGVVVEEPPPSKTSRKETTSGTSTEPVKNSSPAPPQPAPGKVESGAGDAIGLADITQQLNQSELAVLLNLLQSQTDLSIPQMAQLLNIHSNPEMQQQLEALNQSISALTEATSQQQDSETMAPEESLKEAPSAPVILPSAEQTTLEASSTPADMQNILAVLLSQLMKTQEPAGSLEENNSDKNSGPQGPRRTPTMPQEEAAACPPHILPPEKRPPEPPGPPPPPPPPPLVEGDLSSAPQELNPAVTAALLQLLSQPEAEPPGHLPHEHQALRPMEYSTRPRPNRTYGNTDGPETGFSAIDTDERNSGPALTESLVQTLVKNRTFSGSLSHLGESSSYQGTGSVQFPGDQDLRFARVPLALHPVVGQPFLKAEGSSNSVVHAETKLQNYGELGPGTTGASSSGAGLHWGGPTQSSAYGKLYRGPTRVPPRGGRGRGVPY
CDK12, sequence (O75909 whole entry partner): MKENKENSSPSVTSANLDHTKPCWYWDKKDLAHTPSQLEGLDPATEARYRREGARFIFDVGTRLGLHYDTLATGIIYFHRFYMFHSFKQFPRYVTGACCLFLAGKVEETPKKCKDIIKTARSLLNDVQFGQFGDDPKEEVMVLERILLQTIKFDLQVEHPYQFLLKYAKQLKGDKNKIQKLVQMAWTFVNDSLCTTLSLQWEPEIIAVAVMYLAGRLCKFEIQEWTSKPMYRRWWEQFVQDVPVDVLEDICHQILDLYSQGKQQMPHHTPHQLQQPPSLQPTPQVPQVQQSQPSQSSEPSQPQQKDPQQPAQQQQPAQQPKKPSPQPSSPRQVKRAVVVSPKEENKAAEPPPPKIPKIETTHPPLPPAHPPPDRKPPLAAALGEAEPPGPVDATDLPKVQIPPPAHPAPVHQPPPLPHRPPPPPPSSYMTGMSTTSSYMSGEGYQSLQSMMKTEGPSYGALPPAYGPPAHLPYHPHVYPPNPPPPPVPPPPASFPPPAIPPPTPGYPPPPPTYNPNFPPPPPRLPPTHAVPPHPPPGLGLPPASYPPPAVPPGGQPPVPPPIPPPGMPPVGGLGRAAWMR
T1 sequence (Q14004 whole entry): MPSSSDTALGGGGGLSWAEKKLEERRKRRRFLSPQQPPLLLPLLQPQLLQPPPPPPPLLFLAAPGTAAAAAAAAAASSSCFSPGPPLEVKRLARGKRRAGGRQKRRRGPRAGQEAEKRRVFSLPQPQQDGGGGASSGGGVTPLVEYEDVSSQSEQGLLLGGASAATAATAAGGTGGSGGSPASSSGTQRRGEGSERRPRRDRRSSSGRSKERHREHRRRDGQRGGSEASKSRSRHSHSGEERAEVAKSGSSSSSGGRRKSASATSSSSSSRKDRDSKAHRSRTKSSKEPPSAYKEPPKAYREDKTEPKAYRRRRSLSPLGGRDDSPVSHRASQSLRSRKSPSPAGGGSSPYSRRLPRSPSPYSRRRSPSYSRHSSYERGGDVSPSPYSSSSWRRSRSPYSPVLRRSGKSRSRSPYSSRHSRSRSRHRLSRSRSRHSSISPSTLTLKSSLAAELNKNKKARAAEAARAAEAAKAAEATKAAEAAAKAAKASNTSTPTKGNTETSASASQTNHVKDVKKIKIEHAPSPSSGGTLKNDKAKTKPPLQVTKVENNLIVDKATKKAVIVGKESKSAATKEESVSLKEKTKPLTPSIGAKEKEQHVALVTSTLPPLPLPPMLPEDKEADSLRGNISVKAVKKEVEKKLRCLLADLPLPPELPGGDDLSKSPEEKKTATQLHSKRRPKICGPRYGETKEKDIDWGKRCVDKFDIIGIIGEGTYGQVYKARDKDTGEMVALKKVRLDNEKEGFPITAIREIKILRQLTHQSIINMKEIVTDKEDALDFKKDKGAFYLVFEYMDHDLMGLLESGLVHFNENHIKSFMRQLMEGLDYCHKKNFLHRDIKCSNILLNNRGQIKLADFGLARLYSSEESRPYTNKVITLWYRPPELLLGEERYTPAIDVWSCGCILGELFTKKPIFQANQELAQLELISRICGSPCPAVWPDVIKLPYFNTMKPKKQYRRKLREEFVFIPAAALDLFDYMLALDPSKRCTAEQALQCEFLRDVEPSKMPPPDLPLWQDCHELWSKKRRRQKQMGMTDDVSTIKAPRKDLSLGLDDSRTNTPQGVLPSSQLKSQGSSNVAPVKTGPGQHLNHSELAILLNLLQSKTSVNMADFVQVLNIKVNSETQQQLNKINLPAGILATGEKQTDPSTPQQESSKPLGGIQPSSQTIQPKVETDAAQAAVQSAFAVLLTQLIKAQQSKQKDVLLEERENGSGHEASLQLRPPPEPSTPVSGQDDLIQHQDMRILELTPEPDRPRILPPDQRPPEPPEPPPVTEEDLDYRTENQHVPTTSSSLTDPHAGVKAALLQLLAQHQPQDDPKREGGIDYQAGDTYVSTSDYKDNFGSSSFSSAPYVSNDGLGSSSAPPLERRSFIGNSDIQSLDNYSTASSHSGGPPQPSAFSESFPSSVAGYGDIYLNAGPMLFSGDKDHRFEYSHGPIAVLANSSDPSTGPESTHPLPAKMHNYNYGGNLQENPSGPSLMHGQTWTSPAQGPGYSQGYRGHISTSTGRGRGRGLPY
T1 sequence (O75909 whole entry partner): as the sequence (O75909 whole entry partner) above

Protein Degradation (%DMSO control, 0.3 μM) CDK12 (CDK12) | Degradation rates of CDK12 at 0.3 μM (CDK12) | Protein Degradation (%DMSO control, 0.3 μM) CDK13 (CDK13) | Degradation rates of CDK13 at 0.3 μM (CDK13) | CL (Pharmacokinetics in rats; i.v. 2.5 mg/kg) | bioavailability (Pharmacokinetics in rats; [1]) | bioavailability at 24 h (Pharmacokinetics in rats; [1]) | Structure (SMILES) | effect of pretreatment on ZLC491-induced CDK12/13 degradation (CDK12/13)
70% | 70% | 85% | 85% | 9.85 mL/min/kg | 16% | 16.5% | N#Cc1ccc(N[C@H]2CC[C@H](N(C(=O)NCc3ccccc3)c3ccc(N4CCN(C5CCN(c6ccc7c(c6)C(=O)N(C6CCC(=O)NC6=O)C7=O)CC5)CC4)cc3)CC2)nc1 (stereo partly drawn) [4m, 3-Benzyl-1-((1r,4r)-4-((5-cyanopyridin-2-yl)amino)cyclohexyl)-1-(4-(4-(1-(2-(2,6-dioxopiperidin-3-yl)-1,3-dioxoisoindolin-5-yl)piperidin-4-yl)piperazin-1-yl)phenyl)urea] | 
 |  |  |  |  |  |  | Nc1cccc2c1C(=O)N(C1CCC(=O)NC1=O)C2=O (stereo not drawn) [pomalidomide] | reversed
 |  |  |  |  |  |  | NS(=O)(=O)OC[C@@H]1C[C@@H](n2ccc3c(N[C@H]4CCc5ccccc54)ncnc32)C[C@@H]1O [MLN4924] | significantly blocked
63% | 63% | 85% | 85% |  |  |  | N#Cc1ccc(N[C@H]2CC[C@H](N(C(=O)NCc3ccccc3)c3ccc(N4CCC5(CC4)CN(c4ccc6c(c4)C(=O)N(C4CCC(=O)NC4=O)C6=O)C5)cc3)CC2)nc1 (stereo partly drawn) [4n, 3-Benzyl-1-((1r,4r)-4-((5-cyanopyridin-2-yl)amino)cyclohexyl)-1-(4-(2-(2-(2,6-dioxopiperidin-3-yl)-1,3-dioxoisoindolin-5-yl)-2,7-diazaspiro[3.5]nonan-7-yl)phenyl)urea] | 
 |  |  |  |  |  |  | N#Cc1ccc(N[C@H]2CC[C@H](N(C(=O)NCc3ccccc3)c3ccc(N4CCNCC4)cc3)CC2)nc1 [compound 5, 3-Benzyl-1-((1r,4r)-4-((5-cyanopyridin-2-yl)amino)cyclohexyl)-1-(4-(piperazin-1-yl)phenyl)urea] | reversed
53% | 53% | 57% | 57% |  |  |  | N#Cc1ccc(N[C@H]2CC[C@H](N(C(=O)NCc3ccccc3)c3ccc(N4CCN(CC5CCN(c6cc7c(cc6F)C(=O)N(C6CCC(=O)NC6=O)C7=O)CC5)CC4)cc3)CC2)nc1 (stereo partly drawn) [4g-F, 3-Benzyl-1-((1r,4r)-4-((5-cyanopyridin-2-yl)amino)cyclohexyl)-1-(4-(4-((1-(2-(2,6-dioxopiperidin-3-yl)-6-fluoro-1,3-dioxoisoindolin-5-yl)piperidin-4-yl)methyl)piperazin-1-yl)phenyl)urea] | 
28% | 28% | 16% | 16% |  |  |  | N#Cc1ccc(N[C@H]2CC[C@H](N(C(=O)NCc3ccccc3)c3ccc(N4CCC(CN5CCN(c6ccc7c(c6)C(=O)N(C6CCC(=O)NC6=O)C7=O)CC5)C4)cc3)CC2)nc1 (stereo partly drawn) [4i, 3-Benzyl-1-((1r,4r)-4-((5-cyanopyridin-2-yl)amino)cyclohexyl)-1-(4-(3-((4-(2-(2,6-dioxopiperidin-3-yl)-1,3-dioxoisoindolin-5-yl)piperazin-1-yl)methyl)pyrrolidin-1-yl)phenyl)urea] | 
 |  |  |  |  |  |  | CC(C)C[C@@H](C=O)NC(=O)[C@H](CC(C)C)NC(=O)[C@H](CC(C)C)NC(=O)OCc1ccccc1 [MG132] (Cbz-Leu-Leu-Leu-aldehyde) | significantly blocked
38% | 38% | 51% | 51% |  |  |  | N#Cc1ccc(N[C@H]2CC[C@H](N(C(=O)NCc3ccccc3)c3ccc(N4CCN(C(=O)C5CCN(c6ccc7c(c6)C(=O)N(C6CCC(=O)NC6=O)C7=O)CC5)CC4)cc3)CC2)nc1 (stereo partly drawn) [4c, 3-Benzyl-1-((1r,4r)-4-((5-cyanopyridin-2-yl)amino)cyclohexyl)-1-(4-(4-(1-(2-(2,6-dioxopiperidin-3-yl)-1,3-dioxoisoindolin-5-yl)piperidine-4-carbonyl)piperazin-1-yl)phenyl)urea] | 
